In BigSolDB 2.1:

Nc1nc(Cl)cc(Cl)n1
solubility (mole fraction) (in 1,4-dioxane, 288.15 K): 0.0122 | solubility (mole fraction) (in 1,4-dioxane, 293.15 K): 0.0139 | solubility (mole fraction) (in 1,4-dioxane, 298.15 K): 0.016 | solubility (mole fraction) (in 1,4-dioxane, 303.15 K): 0.0182 | solubility (mole fraction) (in 1,4-dioxane, 308.15 K): 0.0205 | solubility (mole fraction) (in 1,4-dioxane, 313.15 K): 0.0233 | solubility (mole fraction) (in 1,4-dioxane, 318.15 K): 0.0262 | solubility (mole fraction) (in acetone, 278.15 K): 0.00538 | solubility (mole fraction) (in acetone, 283.15 K): 0.00618 | solubility (mole fraction) (in acetone, 288.15 K): 0.0073 | solubility (mole fraction) (in acetone, 293.15 K): 0.00848 | solubility (mole fraction) (in acetone, 298.15 K): 0.0097 | solubility (mole fraction) (in acetone, 303.15 K): 0.011 | solubility (mole fraction) (in acetone, 308.15 K): 0.0126 | solubility (mole fraction) (in acetone, 313.15 K): 0.0143 | solubility (mole fraction) (in acetone, 318.15 K): 0.0163 | solubility (mole fraction) (in acetonitrile, 278.15 K): 0.00128 | solubility (mole fraction) (in acetonitrile, 283.15 K): 0.00155 | solubility (mole fraction) (in acetonitrile, 288.15 K): 0.00186 | solubility (mole fraction) (in acetonitrile, 293.15 K): 0.00223 | solubility (mole fraction) (in acetonitrile, 298.15 K): 0.00265 | solubility (mole fraction) (in acetonitrile, 303.15 K): 0.00314 | solubility (mole fraction) (in acetonitrile, 308.15 K): 0.0037 | solubility (mole fraction) (in acetonitrile, 313.15 K): 0.00434 | solubility (mole fraction) (in acetonitrile, 318.15 K): 0.00505 | solubility (mole fraction) (in cyclohexane, 283.15 K): 4.26e-05 | solubility (mole fraction) (in cyclohexane, 288.15 K): 5.55e-05 | solubility (mole fraction) (in cyclohexane, 293.15 K): 7.15e-05 | solubility (mole fraction) (in cyclohexane, 298.15 K): 9.05e-05 | solubility (mole fraction) (in cyclohexane, 303.15 K): 0.000115 | solubility (mole fraction) (in cyclohexane, 308.15 K): 0.000144 | solubility (mole fraction) (in cyclohexane, 313.15 K): 0.000181 | solubility (mole fraction) (in cyclohexane, 318.15 K): 0.000224 | solubility (mole fraction) (in ethanol, 278.15 K): 0.000929 | solubility (mole fraction) (in ethanol, 283.15 K): 0.00111 | solubility (mole fraction) (in ethanol, 288.15 K): 0.00132 | solubility (mole fraction) (in ethanol, 293.15 K): 0.00158 | solubility (mole fraction) (in ethanol, 298.15 K): 0.00183 | solubility (mole fraction) (in ethanol, 303.15 K): 0.00215 | solubility (mole fraction) (in ethanol, 308.15 K): 0.00251 | solubility (mole fraction) (in ethanol, 313.15 K): 0.00293 | solubility (mole fraction) (in ethanol, 318.15 K): 0.00339 | solubility (mole fraction) (in ethyl acetate, 278.15 K): 0.00458 | solubility (mole fraction) (in ethyl acetate, 283.15 K): 0.00535 | solubility (mole fraction) (in ethyl acetate, 288.15 K): 0.00631 | solubility (mole fraction) (in ethyl acetate, 293.15 K): 0.0073 | solubility (mole fraction) (in ethyl acetate, 298.15 K): 0.00847 | solubility (mole fraction) (in ethyl acetate, 303.15 K): 0.00981 | solubility (mole fraction) (in ethyl acetate, 308.15 K): 0.0113 | solubility (mole fraction) (in ethyl acetate, 313.15 K): 0.0129 | solubility (mole fraction) (in ethyl acetate, 318.15 K): 0.0147 | solubility (mole fraction) (in isopropanol, 278.15 K): 0.000517 | solubility (mole fraction) (in isopropanol, 283.15 K): 0.000645 | solubility (mole fraction) (in isopropanol, 288.15 K): 0.000808 | solubility (mole fraction) (in isopropanol, 293.15 K): 0.000989 | solubility (mole fraction) (in isopropanol, 298.15 K): 0.00121 | solubility (mole fraction) (in isopropanol, 303.15 K): 0.00148 | solubility (mole fraction) (in isopropanol, 308.15 K): 0.00178 | solubility (mole fraction) (in isopropanol, 313.15 K): 0.00215 | solubility (mole fraction) (in isopropanol, 318.15 K): 0.00257 | solubility (mole fraction) (in methanol, 278.15 K): 0.00113 | solubility (mole fraction) (in methanol, 283.15 K): 0.00132 | solubility (mole fraction) (in methanol, 288.15 K): 0.00158 | solubility (mole fraction) (in methanol, 293.15 K): 0.00183 | solubility (mole fraction) (in methanol, 298.15 K): 0.00218 | solubility (mole fraction) (in methanol, 303.15 K): 0.00251 | solubility (mole fraction) (in methanol, 308.15 K): 0.00293 | solubility (mole fraction) (in methanol, 313.15 K): 0.00335 | solubility (mole fraction) (in methanol, 318.15 K): 0.00389 | solubility (mole fraction) (in n-propanol, 278.15 K): 0.000792 | solubility (mole fraction) (in n-propanol, 283.15 K): 0.00095 | solubility (mole fraction) (in n-propanol, 288.15 K): 0.00113 | solubility (mole fraction) (in n-propanol, 293.15 K): 0.00136 | solubility (mole fraction) (in n-propanol, 298.15 K): 0.00163 | solubility (mole fraction) (in n-propanol, 303.15 K): 0.00192 | solubility (mole fraction) (in n-propanol, 308.15 K): 0.00226 | solubility (mole fraction) (in n-propanol, 313.15 K): 0.00265 | solubility (mole fraction) (in n-propanol, 318.15 K): 0.00313 | solubility (mole fraction) (in toluene, 278.15 K): 0.000551 | solubility (mole fraction) (in toluene, 283.15 K): 0.000695 | solubility (mole fraction) (in toluene, 288.15 K): 0.000856 | solubility (mole fraction) (in toluene, 293.15 K): 0.00105 | solubility (mole fraction) (in toluene, 298.15 K): 0.00128 | solubility (mole fraction) (in toluene, 303.15 K): 0.00156 | solubility (mole fraction) (in toluene, 308.15 K): 0.00188 | solubility (mole fraction) (in toluene, 313.15 K): 0.00228 | solubility (mole fraction) (in toluene, 318.15 K): 0.00274
